In patent US12297193B2, “PTPN2/PTP1B degrader and therapeutic method thereof” (NORTHRIDGE HEALTH GROUP (HONG KONG) CO., LIMITED, priority 2023, dated 2025):
pEC50: −log10 of the molar value. Entries after “also recorded” stand apart in the source; their conditions may differ. Like-named read-outs stand apart in the source and are kept apart here.

Assays:
PTPN2 = target: T1, PTPN2 (Homo sapiens, UniProt P17706); experiment: Western blot, PTPN2 degradation in HEK293T cells; assay type: cell-based; conditions: 48 hours incubation; for DC50 / Dmax: Western blot; for DC50: read-out: Relative DC50, PTPN2 degradation; for Dmax: HEK-293T
T1 construct: endogenous in cells; host or cells: HEK293T
T1 sequence (P17706 1-415): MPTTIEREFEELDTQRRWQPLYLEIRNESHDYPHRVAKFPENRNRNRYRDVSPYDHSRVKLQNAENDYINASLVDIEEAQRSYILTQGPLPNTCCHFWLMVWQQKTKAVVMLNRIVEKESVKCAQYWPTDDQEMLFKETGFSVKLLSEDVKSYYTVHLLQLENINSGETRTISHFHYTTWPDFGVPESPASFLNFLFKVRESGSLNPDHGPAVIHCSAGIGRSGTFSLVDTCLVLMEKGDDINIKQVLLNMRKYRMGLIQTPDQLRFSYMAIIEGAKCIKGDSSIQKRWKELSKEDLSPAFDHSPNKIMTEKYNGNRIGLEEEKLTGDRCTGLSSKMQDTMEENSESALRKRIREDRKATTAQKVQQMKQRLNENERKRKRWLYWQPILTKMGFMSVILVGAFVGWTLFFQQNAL
Method: (§1) 1. Sample preparation: 150,000 HEK293T cells per well were seeded in a 24-well plate and incubated overnight. Compounds were added to the wells at the final concentrations of 20 μM, 10 μM, 5 μM, 2 μM, 1 μM, 500 nM, 200 nM, 100 nM, 50 nM, 20 nM, 5 nM, 0 nM (solvent control) and medium (negative control) and incubated for 48 hours. After incubation, the supernatants were discarded. Cells were washed with pre-chilled PBS once, 40 μL cell lysis buffer were added to lyse the cells and then centrifuged at 14000 g, 4° C. for 20 mins. The supernatant was aspirated and the protein concentration were quantified. 5× loading buffer was added into the samples, and the samples were heated at 70° C. for 10 minutes.
(§2) 2. Experimental procedure: 20 μg protein were added to each well then start SDS-PAGE electrophoresis. The protein was transferred to the PVDF membrane.
(§3) The blotting current was set at 250 mA for 90 min. 5% BSA in TBST was used to block the membrane for 1 h at room temperature. After diluting the primary antibody according to Table 2, the membrane was hybridized overnight at 4° C. The membrane was washed three times with TBST, 7 minutes each time. After diluting the secondary antibody, the membrane was incubated for 2 h at room temperature. The membrane was washed three times with TBST for 7 min each time.
(§4) ImageJ software was used to detect the gray value of each band and enter it into the following formula as the degradation rate (D): […]
(§5) D is the degradation rate, V refers to the gray value: target refers to the name of the protein targeted for degradation, housekeeping refers to housekeeping proteins such as GAPDH and beta-actin: DMSO refers to the solvent DMSO added only to dissolve PROTAC and incubate cells: Lane X refers to a lane with a specific incubation concentration; Lane Y refers to a lane where only the solvent DMSO is added to incubate cells.
(§6) A graph was drawn with degradation rate as the vertical axis and drug incubation concentration as the horizontal axis, and DC50 and Dmax were read and recorded in Tables 3, 4, 5 and 6.

[1] = PK study in SD rats after a single intravenous administration; assay type: in vivo; conditions: for clearance / concentration at 0.083 h / concentration at 0.25 h / concentration at 0.5 h / concentration at 1 h / concentration at 2 h / concentration at 4 h / concentration at 8 h / concentration at 10 h / concentration at 24 h / AUC(0-t): Sprague-Dawley (SD), rat, plasma; for AUC(0-t): read-out: AUC0-24 h
Method: A PK study of the compounds after a single intravenous administration.
SD rats were randomly assigned to 5 groups (3 rats/group). Blood samples were collected from animals at 0.083 h, 0.25 h, 0.5 h, 1 h, 2 h, 4 h, 8 h, 10 h and 24 h after administration. Blood samples were collected in an anticoagulant tube containing EDTA-K2. The concentration of compounds in plasma were determined by an LC-MS/MS method with the lower limit of quantitation (LLOQ) of 0.50 ng/mL. Pharmacokinetic parameters were calculated with WinNonlin to assess the PK characteristics in SD rats. The formulation prescription was DMSO: Cremophor EL: 5% Glucose Solution=5:5:90 (v/v/v).

[2] = test system: HEK293/Luc (IFN-γ) stable cell line; experiment: Luciferase reporter assay in HEK293/Luc (IFN-γ) cells; assay type: cell-based; conditions: Homo sapiens; stimulated with 30 ng/mL IFN-γ in HEK293/Luc; 6 h incubation; read-out: Absolute EC50
Method: HEK293/Luc (IFN-γ) stable cell line (Cat: M00953) and Fire-Lumi luciferase detection kit (Cat: L00877C) were purchased from GenScript. The complete culture medium formulation was DMEM containing 10% FBS and 1% Penicillin-Streptomycin. For EC50 detection, 60 μL HEK293/Luc (IFN-γ) cells were seeded at the density of 10,000 cells/well into 384 well assay plates (761601, NEST) using the medium above mentioned.
The working solutions for each sample were prepared triplicated at 9 gradient doses, starting from 10 µM and diluted by 4 folds. The IFN-γ working solution was prepared at 0.8 ng/mL concentration. The sample working solution and IFN-γ working solution were mixed at the volume of 1:1, and then 20 μl/well of the aliquot was added into the 384-well plate and cells were incubated at 37° C./5% CO2 for 6 h. 40 μL/well prewarmed detection reagents were added into the cells. Luminescent signals could be determined after 5-minute incubation. The data were plotted and four-parameter fitting was performed on the test data to obtain the relative EC50 value of the curve by Prism GraphPad 9 software (Table 1).

PTP1B = target: T2, PTP1B (Homo sapiens, UniProt P18031); experiment: Western blot, PTP1B degradation in HEK293T cells; assay type: cell-based; conditions: 48 hours incubation; for DC50 / Dmax: Western blot; for DC50: read-out: Relative DC50, PTP1B degradation; for Dmax: HEK-293T
T2 construct: endogenous in cells; host or cells: HEK293T
T2 sequence (P18031 1-435): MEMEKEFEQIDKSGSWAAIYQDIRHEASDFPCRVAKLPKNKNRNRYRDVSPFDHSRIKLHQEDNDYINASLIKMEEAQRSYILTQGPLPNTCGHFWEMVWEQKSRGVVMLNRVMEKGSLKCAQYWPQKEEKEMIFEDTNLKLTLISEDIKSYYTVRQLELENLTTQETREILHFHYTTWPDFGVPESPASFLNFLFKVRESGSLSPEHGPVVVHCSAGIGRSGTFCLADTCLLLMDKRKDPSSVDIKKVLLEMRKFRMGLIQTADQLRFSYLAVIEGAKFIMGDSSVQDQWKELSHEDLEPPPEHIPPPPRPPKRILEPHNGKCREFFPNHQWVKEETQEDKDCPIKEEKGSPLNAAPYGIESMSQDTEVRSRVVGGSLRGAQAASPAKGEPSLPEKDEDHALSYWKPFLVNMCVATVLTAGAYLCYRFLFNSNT
Method: as §1, §2, §3, §4, §5, §6

SMILES | DC50 (PTPN2) | Dmax (PTPN2) | clearance ([1]; 1 mg/kg) | concentration at 0.083 h ([1]; 1 mg/kg) | concentration at 0.25 h ([1]; 1 mg/kg) | concentration at 0.5 h ([1]; 1 mg/kg) | concentration at 1 h ([1]; 1 mg/kg) | concentration at 2 h ([1]; 1 mg/kg) | concentration at 4 h ([1]; 1 mg/kg) | concentration at 8 h ([1]; 1 mg/kg) | concentration at 10 h ([1]; 1 mg/kg) | concentration at 24 h ([1]; 1 mg/kg, 24 h) | AUC(0-t) ([1]; 1 mg/kg) | other results
CC1(C)CC(Nc2cccc(-c3sc(C(=O)O)c(OCC(=O)O)c3Cl)c2)CCN1S(=O)(=O)Cc1ccc2cnc(N3CCC(c4ccc5c6c(cccc46)C(=O)N5C4CCC(=O)NC4=O)CC3)nc2c1 (stereo not shown) [Compound 16] | 0.0388 µM | 96.5% | – | – | – | – | – | – | – | – | – | – | – | –
CC1(C)CC(Nc2cccc(-c3sc(C(=O)O)c(OCC(=O)O)c3Cl)c2)CCN1S(=O)(=O)Cc1ccc2oc(N3CCC(c4ccc5c6c(cccc46)C(=O)N5C4CCC(=O)NC4=O)CC3)nc2c1 (stereo not shown) [Compound 21] | 0.0101 µM | 100% | 0.661 mL/min/kg | 18100 ng/mL | 14600 ng/mL | 9660 ng/mL | 5980 ng/mL | 2890 ng/mL | 1000 ng/mL | 372 ng/mL | 321 ng/mL | 98.6 ng/mL | 27200 ng·h/mL | pEC50 [2]: 7.32; Effect on PTP1B compared with PTPN2 at the same concentration (selectivity, FIG. 1), in words (PTP1B): the degradation ability of PTPN2 is better than that of PTP1B; also recorded: much weaker than that of PTPN2; DC50 (PTP1B): 0.861 µM; Dmax (PTP1B): 97.3%; Degradation ability on PTPN2 protein at different concentrations (FIG. 1), in words (PTPN2; 5 nM to 20 μM): good degradation ability on PTPN2 protein in a dose-dependent manner; also recorded: completely degraded at high concentrations
O=C(O)COc1c(C(=O)O)sc(-c2cccc(NC3CCN(S(=O)(=O)Cc4ccc5oc(N6CCC(c7ccc8c9c(cccc79)C(=O)N8C7CCC(=O)NC7=O)CC6)nc5c4)CC3)c2)c1Cl (stereo not shown) [Compound 23] | – | – | 0.684 mL/min/kg | 21700 ng/mL | 17900 ng/mL | 12600 ng/mL | 7110 ng/mL | 2420 ng/mL | 525 ng/mL | 110 ng/mL | 95.1 ng/mL | 39.6 ng/mL | 24700 ng·h/mL | –

Now from value to compound, other results behind:

DC50 (PTPN2) | Dmax (PTPN2) | clearance ([1]; 1 mg/kg) | concentration at 0.083 h ([1]; 1 mg/kg) | concentration at 0.25 h ([1]; 1 mg/kg) | concentration at 0.5 h ([1]; 1 mg/kg) | concentration at 1 h ([1]; 1 mg/kg) | concentration at 2 h ([1]; 1 mg/kg) | concentration at 4 h ([1]; 1 mg/kg) | concentration at 8 h ([1]; 1 mg/kg) | concentration at 10 h ([1]; 1 mg/kg) | concentration at 24 h ([1]; 1 mg/kg, 24 h) | AUC(0-t) ([1]; 1 mg/kg) | SMILES | other results
0.0512 µM | 97.2% | 0.351 mL/min/kg | 21900 ng/mL | 17000 ng/mL | 13200 ng/mL | 8730 ng/mL | 5430 ng/mL | 2870 ng/mL | 1090 ng/mL | 809 ng/mL | 206 ng/mL | 48700 ng·h/mL | O=C(O)COc1c(C(=O)O)sc(-c2cccc(NC3CCN(S(=O)(=O)Cc4ccc5oc(N6CCC(c7ccc8c9c(cccc79)C(=O)N8C7CCC(=O)NC7=O)CC6)nc5c4)C4(CC4)C3)c2)c1Cl (stereo not shown) [Compound 57] | –
0.0552 µM | 100% | – | – | – | – | – | – | – | – | – | – | – | CC1(C)CC(Nc2cccc(-c3sc(C(=O)O)c(OC(F)(F)C(=O)O)c3Cl)c2)CCN1S(=O)(=O)Cc1ccc2oc(N3CCC(c4ccc5c6c(cccc46)C(=O)N5C4CCC(=O)NC4=O)CC3)nc2c1 (stereo not shown) [Compound 78] | –
– | – | 0.568 mL/min/kg | 19400 ng/mL | 14900 ng/mL | 11500 ng/mL | 7920 ng/mL | 3810 ng/mL | 1050 ng/mL | 345 ng/mL | 279 ng/mL | 57.5 ng/mL | 29700 ng·h/mL | [2H]C([2H])(c1ccc2oc(N3CCC(c4ccc5c6c(cccc46)C(=O)N5C4CCC(=O)NC4=O)CC3)nc2c1)S(=O)(=O)N1CCC(Nc2cccc(-c3sc(C(=O)O)c(OCC(=O)O)c3Cl)c2)CC1(C)C (stereo not shown) [Compound 151] | –
0.0293 µM | 96.3% | – | – | – | – | – | – | – | – | – | – | – | CC1(C)C[C@@H](Nc2cccc(-c3sc(C(=O)O)c(OCC(=O)O)c3Cl)c2)CCN1S(=O)(=O)Cc1cccc(NC(=O)N2CCC(c3ccc4c5c(cccc35)C(=O)N4[C@H]3CCC(=O)NC3=O)CC2)c1 [Ref. Cpd, reference compound] | Plasma concentration ([1]; 2 mg/kg, 24 h, LLOQ 0.50 ng/mL): BLOQ; clearance ([1]; 2 mg/kg): 4.46 mL/min/kg; concentration at 0.083 h ([1]; 2 mg/kg): 22700 ng/mL; concentration at 0.25 h ([1]; 2 mg/kg): 8300 ng/mL; concentration at 0.5 h ([1]; 2 mg/kg): 1290 ng/mL; concentration at 1 h ([1]; 2 mg/kg): 318 ng/mL; concentration at 2 h ([1]; 2 mg/kg): 148 ng/mL; concentration at 4 h ([1]; 2 mg/kg): 79.4 ng/mL; concentration at 8 h ([1]; 2 mg/kg): 29.3 ng/mL; concentration at 10 h ([1]; 2 mg/kg): 18.9 ng/mL; AUC(0-t) ([1]; 2 mg/kg): 7490 ng·h/mL; pEC50 [2]: 6.33; DC50 (PTP1B): 0.271 µM; Dmax (PTP1B): 96.8%
